In patent publication US20090081197A1 (Palatin Technologies, Inc., priority 2007, published 2009):
pEC50: −log10 of the molar value. Non-standard residues stand in square brackets, D forms with d. Residues, ends and D or L forms follow the SMILES beside them. *: point of attachment. dPhe(4-Cl) = N[C@H](Cc1ccc(Cl)cc1)C(=O)O; Ahp = NCCCCCCC(=O)O; Bn = c1ccc(C*)cc1

How the values were obtained:
MC4-R [1] = molecular target: T1, MC4-R (Homo sapiens, UniProt P32245); assay: cAMP agonist stimulation, low receptor density system (0.1 ng/mL doxycycline); conditions: 0.1 ng/mL doxycycline, low receptor density hMC4-R system; NDP-α-MSH maximal cAMP = 1.0
MC4-R [2] = molecular target: T1, MC4-R; assay: cAMP agonist stimulation, high receptor density system (10 ng/mL doxycycline); conditions: for Efficacy/Intrinsic Activity: 10 ng/mL doxycycline, high receptor density hMC4-R system, NDP-α-MSH maximal cAMP = 1.0
[3] = IP (and IN) food intake, mice; type: in vivo; conditions: mouse, IP, 10 mg/kg, 4 hours
Summary of the method: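 Male Sprague-Dawley rats dosed IV (0.5-3, up to 10 mg/kg) or IP (0.5-10, up to 50 mg/kg); male C57BL/6 mice dosed IP. Change in food intake and body weight over 24 h post-dose versus 1-week vehicle baseline, with 48 and 72 h reversal checks.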

MC4-R [4] = molecular target: T1, MC4-R; assay: Assay for neutral antagonist, Schild analysis (pA2) against NDP-α-MSH; type: cell-based; parameters: expressed in transfected cells; host or cells: HEK-293; conditions: Schild analysis vs NDP-α-MSH; read-out: pA2 value as antagonist at MC4-R in a normal system (converted)
Experimental: Assay for Neutral Antagonist. […] These studies were carried out in HEK-293 cells expressing the MC4-R receptor. Cells were incubated with the compounds in the presence of the agonist NDP-α-MSH and the extent of antagonism was measured by the decrease in the level of intracellular cAMP. Screening the compounds for antagonists was done at a single concentration of NDP-α-MSH (1.0 nM) over a compound concentration range of 0.5-5000 nM.
Experimental details were similar to the analysis for agonistic activity described above. Briefly, cells were pre-incubated for 30 minutes with the test compounds at concentrations between 0.5 nM and 5000 nM. The cells were then stimulated with NDP-α-MSH at a concentration of 1 nM for 1 hour. For Schild analysis, the interactions were studied using at least 3 concentrations of the compounds, separated by a log unit, over a full range of the agonist (0.005-5000 nM). cAMP levels was measured in the cell lysates after appropriate dilution. Nonlinear regression analysis with Prism Graph-Pad software was used for Schild analysis and to obtain EC50 values. pA2 values were derived from the Schild plot of the data.

T1 sequence (P32245 whole entry): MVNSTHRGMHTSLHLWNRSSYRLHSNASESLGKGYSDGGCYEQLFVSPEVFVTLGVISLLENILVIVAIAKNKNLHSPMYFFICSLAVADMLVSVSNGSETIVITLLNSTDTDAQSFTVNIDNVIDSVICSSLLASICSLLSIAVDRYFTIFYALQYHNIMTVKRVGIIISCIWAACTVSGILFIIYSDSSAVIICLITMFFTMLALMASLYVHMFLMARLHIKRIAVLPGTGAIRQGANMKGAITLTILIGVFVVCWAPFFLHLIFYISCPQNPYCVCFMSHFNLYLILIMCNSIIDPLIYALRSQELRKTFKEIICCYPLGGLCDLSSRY

Row | SMILES | Efficacy/Intrinsic Activity (MC4-R [1]) | pEC50 (MC4-R [2]) | Efficacy/Intrinsic Activity (MC4-R [2]) | maximal decrease in food intake [3] [%] | Kb (MC4-R [4]) [nM]
1 | N=C(N)NCCC[C@H]1CN(CCc2ccc3ccccc3c2)CCN1C(=O)[C@H](N)Cc1ccc(Cl)cc1Cl [Example 17, N-{3-[(S)-1-[(R)-2-Amino-3-(2,4-dichloro-phenyl)-propionyl]-4-(2-naphthalen-2-yl-ethyl)-piperazin-2-yl]-propyl}-guanidine] | None | 6.07 | 0.67 | 86 | –
2 | N=C(N)NCCC[C@H](NC(=O)[C@@H](Cc1ccc(Cl)cc1)NC(=O)[C@H](COCc1ccccc1)NC(=O)CCCCCCN)C(=O)N[C@@H](Cc1c[nH]c2ccccc12)C(=O)N[C@@H](CC(=O)O)C(N)=O [Example 13, NH2—(CH2)6—C(═O)-Ser(Bzl)-D-Phe(4-Cl)-Arg-Trp-Asp-NH2] (H-[Ahp]S(Bn)[dPhe(4-Cl)]RWD-NH2) | None | 7.47 | 0.72 | – | 50.1
